pEC50: −log10 of the molar value.
What follows are compounds tested against T1, hQ23 (HEK-293 cell line stably transfected with one of the members of the KCNQ family) (Homo sapiens, UniProt O43525+O43526) (assay: Thallium flux assay for KCNQ channel blockers (FLIPR, BTC dye)). Conditions: hQ23 cells, thallium flux.
T1 construct: expressed in transfected cells; host or cells: HEK-293, stably transfected
Format: cell-based
Outline: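 HEK-293 cells stably expressing a KCNQ member, loaded with BTC-AM (2 μM) in chloride-free buffer, pH 7.3; compounds added at 1% DMSO, then Tl2SO4 stimulus on FLIPR (488/540 nm, 60 s). Minimal active concentration set at ≥4 SD above negative control; IC50 from 10-point 1:3 series, single-site logistic fit versus the positive-control blocker.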

T1 sequence (O43526 whole entry): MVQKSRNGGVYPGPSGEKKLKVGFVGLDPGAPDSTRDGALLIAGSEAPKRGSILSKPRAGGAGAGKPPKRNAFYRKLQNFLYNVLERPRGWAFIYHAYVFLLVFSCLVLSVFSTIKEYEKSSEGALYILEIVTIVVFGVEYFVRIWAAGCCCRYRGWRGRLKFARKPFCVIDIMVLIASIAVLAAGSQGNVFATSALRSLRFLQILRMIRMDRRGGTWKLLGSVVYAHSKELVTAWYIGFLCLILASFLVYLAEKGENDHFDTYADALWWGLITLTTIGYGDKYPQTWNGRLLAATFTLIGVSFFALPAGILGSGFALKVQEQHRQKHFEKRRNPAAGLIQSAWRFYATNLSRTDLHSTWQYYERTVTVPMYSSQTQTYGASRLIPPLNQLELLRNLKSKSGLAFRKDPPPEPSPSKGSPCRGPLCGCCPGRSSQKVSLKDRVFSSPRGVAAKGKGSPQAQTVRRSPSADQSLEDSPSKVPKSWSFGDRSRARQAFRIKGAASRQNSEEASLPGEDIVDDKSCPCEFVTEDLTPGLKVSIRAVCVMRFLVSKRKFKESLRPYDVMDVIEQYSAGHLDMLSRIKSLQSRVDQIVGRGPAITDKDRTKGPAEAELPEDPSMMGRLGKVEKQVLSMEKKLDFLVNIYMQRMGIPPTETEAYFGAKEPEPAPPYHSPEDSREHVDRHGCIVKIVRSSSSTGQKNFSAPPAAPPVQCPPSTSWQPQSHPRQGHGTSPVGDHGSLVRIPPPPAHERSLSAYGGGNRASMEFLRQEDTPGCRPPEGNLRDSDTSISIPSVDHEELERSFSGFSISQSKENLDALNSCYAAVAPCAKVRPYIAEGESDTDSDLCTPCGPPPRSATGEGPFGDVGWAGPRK
T1 sequence (O43525 whole entry): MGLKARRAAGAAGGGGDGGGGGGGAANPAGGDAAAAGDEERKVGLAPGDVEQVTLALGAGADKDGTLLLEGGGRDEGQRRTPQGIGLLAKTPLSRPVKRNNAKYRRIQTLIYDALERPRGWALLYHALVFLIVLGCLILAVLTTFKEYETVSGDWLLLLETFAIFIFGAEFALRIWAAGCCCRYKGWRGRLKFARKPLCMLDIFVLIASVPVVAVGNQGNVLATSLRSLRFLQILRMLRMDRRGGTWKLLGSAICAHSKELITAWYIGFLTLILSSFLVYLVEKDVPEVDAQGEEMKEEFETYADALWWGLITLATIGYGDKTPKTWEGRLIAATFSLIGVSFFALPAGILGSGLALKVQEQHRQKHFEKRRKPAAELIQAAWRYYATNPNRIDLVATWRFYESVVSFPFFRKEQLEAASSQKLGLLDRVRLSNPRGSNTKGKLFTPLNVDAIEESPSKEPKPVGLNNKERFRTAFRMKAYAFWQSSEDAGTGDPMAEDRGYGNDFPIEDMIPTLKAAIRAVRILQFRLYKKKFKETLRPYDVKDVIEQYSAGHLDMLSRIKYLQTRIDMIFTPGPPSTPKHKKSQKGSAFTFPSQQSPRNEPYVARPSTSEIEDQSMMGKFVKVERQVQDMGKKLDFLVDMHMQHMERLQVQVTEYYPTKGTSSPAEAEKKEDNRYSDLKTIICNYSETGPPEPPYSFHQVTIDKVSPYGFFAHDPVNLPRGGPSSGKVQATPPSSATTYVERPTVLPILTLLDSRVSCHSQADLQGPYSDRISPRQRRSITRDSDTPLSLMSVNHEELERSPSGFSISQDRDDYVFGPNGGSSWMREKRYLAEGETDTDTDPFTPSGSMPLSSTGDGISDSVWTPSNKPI

pEC50 | SMILES
6.80 | CC(NC(=O)c1cnc(NC2CCCC2)nc1C1(c2ccccc2)CCCC1)c1cccc2ccccc12 (centres unmarked) [Example 100, 5-pyrimidinecarboxamide, 2-(cyclopentylamino)-N-[1-(1-naphthalenyl)ethyl]-4-(1-phenylcyclopentyl)-]
6.17 | O=C(NCc1cccc2ccccc12)c1cnc(NC2CC2)nc1C1(c2ccccc2)CCCC1 [Example 101, 5-pyrimidinecarboxamide, 2-(cyclopropylamino)-N-(1-naphthalenylmethyl)-4-(1-phenylcyclopentyl)-]
6.71 | CC1CCC(Nc2ncc(C(=O)NCc3cccc4ccccc34)c(C3(c4ccccc4)CCCC3)n2)CC1 (centres unmarked) [Example 102, 5-pyrimidinecarboxamide, 2-[(4-methylcyclohexyl)amino]-N-(1-naphthalenylmethyl)-4-(1-phenylcyclopentyl)-]
7.18 | CC1CCCN(c2ncc(C(=O)NCc3cccc4ccccc34)c(C3(c4ccccc4)CCCC3)n2)C1 (centres unmarked) [Example 103, 5-pyrimidinecarboxamide, 2-(3-methyl-1-piperidinyl)-N-(1-naphthalenylmethyl)-4-(1-phenylcyclopentyl)-]
8.00 | CC1CCN(c2ncc(C(=O)NCc3cccc4ccccc34)c(C3(c4ccccc4)CCCC3)n2)CC1 [Example 104, 5-pyrimidinecarboxamide, 2-(4-methyl-1-piperidinyl)-N-(1-naphthalenylmethyl)-4-(1-phenylcyclopentyl)-]
6.22 | CCC(C)Nc1ncc(C(=O)NCc2cccc3ccccc23)c(C2(c3ccccc3)CCCC2)n1 (centres unmarked) [Example 105, 5-pyrimidinecarboxamide, 2-[(1-methylpropyl)amino]-N-(1-naphthalenylmethyl)-4-(1-phenylcyclopentyl)-]
6.89 | CC1CCC(Nc2ncc(C(=O)NCc3ccc(Cl)c(Cl)c3)c(C3(c4ccccc4)CCCC3)n2)CC1 (centres unmarked) [Example 106, 5-pyrimidinecarboxamide, N-[(3,4-dichlorophenyl)methyl]-2-[(4-methylcyclohexyl)amino]-4-(1-phenylcyclopentyl)-]
6.95 | CC1CCCN(c2ncc(C(=O)NCc3ccc(Cl)c(Cl)c3)c(C3(c4ccccc4)CCCC3)n2)C1 (centres unmarked) [Example 107, 5-pyrimidinecarboxamide, N-[(3,4-dichlorophenyl)methyl]-2-(3-methyl-1-piperidinyl)-4-(1-phenylcyclopentyl)-]
7.43 | CC1CCN(c2ncc(C(=O)NCc3ccc(Cl)c(Cl)c3)c(C3(c4ccccc4)CCCC3)n2)CC1 [Example 108, 5-pyrimidinecarboxamide, N-[(3,4-dichlorophenyl)methyl]-2-(4-methyl-1-piperidinyl)-4-(1-phenylcyclopentyl)-]
6.30 | O=C(NCc1ccc(Cl)cc1Cl)c1cnc(NC2CC2)nc1C1(c2ccccc2)CCCC1 [Example 109, 5-pyrimidinecarboxamide, 2-(cyclopropylamino)-N-[(2,4-dichlorophenyl)methyl]-4-(1-phenylcyclopentyl)-]
7.17 | CC1CCC(Nc2ncc(C(=O)NCc3ccc(Cl)cc3Cl)c(C3(c4ccccc4)CCCC3)n2)CC1 (centres unmarked) [Example 110, 5-pyrimidinecarboxamide, N-[(2,4-dichlorophenyl)methyl]-2-[(4-methylcyclohexyl)amino]-4-(1-phenylcyclopentyl)-]
6.72 | O=C(NCc1ccc(Cl)cc1Cl)c1cnc(N2CCCC2)nc1C1(c2ccccc2)CCCC1 [Example 111, 5-pyrimidinecarboxamide, N-[(2,4-dichlorophenyl)methyl]-4-(1-phenylcyclopentyl)-2-(1-pyrrolidinyl)-]
7.19 | CC1CCCN(c2ncc(C(=O)NCc3ccc(Cl)cc3Cl)c(C3(c4ccccc4)CCCC3)n2)C1 (centres unmarked) [Example 112, 5-pyrimidinecarboxamide, N-[(2,4-dichlorophenyl)methyl]-2-(3-methyl-1-piperidinyl)-4-(1-phenylcyclopentyl)-]
8.00 | CC1CCN(c2ncc(C(=O)NCc3ccc(Cl)cc3Cl)c(C3(c4ccccc4)CCCC3)n2)CC1 [Example 113, 5-pyrimidinecarboxamide, N-[(2,4-dichlorophenyl)methyl]-2-(4-methyl-1-piperidinyl)-4-(1-phenylcyclopentyl)-]
6.99 | CCC(C)Nc1ncc(C(=O)NCc2ccc(Cl)cc2Cl)c(C2(c3ccccc3)CCCC2)n1 (centres unmarked) [Example 114, 5-pyrimidinecarboxamide, N-[(2,4-dichlorophenyl)methyl]-2-[(1-methylpropyl)amino]-4-(1-phenylcyclopentyl)-]
6.87 | O=C(NCc1ccc(Cl)cc1Cl)c1cnc(NC2CCCC2)nc1C1(c2ccccc2)CCCC1 [Example 115, 5-pyrimidinecarboxamide, 2-(cyclopentylamino)-N-[(2,4-dichlorophenyl)methyl]-4-(1-phenylcyclopentyl)-]

pEC50 | SMILES
7.07 | CC1CCC(Nc2ncc(C(=O)NCc3ccc(F)cc3F)c(C3(c4ccccc4)CCCC3)n2)CC1 (centres unmarked) [Example 116, 5-pyrimidinecarboxamide, N-[(2,4-difluorophenyl)methyl]-2-[(4-methylcyclohexyl)amino]-4-(1-phenylcyclopentyl)-]
6.90 | O=C(NCc1ccc(F)cc1F)c1cnc(N2CCCC2)nc1C1(c2ccccc2)CCCC1 [Example 117, 5-pyrimidinecarboxamide, N-[(2,4-difluorophenyl)methyl]-4-(1-phenylcyclopentyl)-2-(1-pyrrolidinyl)-]
7.43 | CC1CCCN(c2ncc(C(=O)NCc3ccc(F)cc3F)c(C3(c4ccccc4)CCCC3)n2)C1 (centres unmarked) [Example 118, 5-pyrimidinecarboxamide, N-[(2,4-difluorophenyl)methyl]-2-(3-methyl-1-piperidinyl)-4-(1-phenylcyclopentyl)-]
6.91 | CC1CCN(c2ncc(C(=O)NCc3ccc(F)cc3F)c(C3(c4ccccc4)CCCC3)n2)CC1 [Example 119, 5-pyrimidinecarboxamide, N-[(2,4-difluorophenyl)methyl]-2-(4-methyl-1-piperidinyl)-4-(1-phenylcyclopentyl)-]
7.21 | CCC(C)Nc1ncc(C(=O)NCc2ccc(F)cc2F)c(C2(c3ccccc3)CCCC2)n1 (centres unmarked) [Example 120, 5-pyrimidinecarboxamide, N-[(2,4-difluorophenyl)methyl]-2-[(1-methylpropyl)amino]-4-(1-phenylcyclopentyl)-]
7.62 | O=C(NCc1ccc(F)cc1F)c1cnc(NC2CCCC2)nc1C1(c2ccccc2)CCCC1 [Example 121, 5-pyrimidinecarboxamide, 2-(cyclopentylamino)-N-[(2,4-difluorophenyl)methyl]-4-(1-phenylcyclopentyl)-]
8.00 | O=C(NCc1cc(F)cc(C(F)(F)F)c1)c1cnc(NC2CC2)nc1C1(c2ccccc2)CCCC1 [Example 122, 5-pyrimidinecarboxamide, 2-(cyclopropylamino)-N-[[3-fluoro-5-(trifluoromethyl)phenyl]methyl]-4-(1-phenylcyclopentyl)-]
8.00 | CC1CCC(Nc2ncc(C(=O)NCc3cc(F)cc(C(F)(F)F)c3)c(C3(c4ccccc4)CCCC3)n2)CC1 (centres unmarked) [Example 123, 5-pyrimidinecarboxamide, N-[[3-fluoro-5-(trifluoromethyl)phenyl]methyl]-2-[(4-methylcyclohexyl)amino]-4-(1-phenylcyclopentyl)-]
6.62 | O=C(NCc1cc(F)cc(C(F)(F)F)c1)c1cnc(N2CCCC2)nc1C1(c2ccccc2)CCCC1 [Example 124, 5-pyrimidinecarboxamide, N-[[3-fluoro-5-(trifluoromethyl)phenyl]methyl]-4-(1-phenylcyclopentyl)-2-(1-pyrrolidinyl)-]
6.43 | CN1CCN(c2ncc(C(=O)NCc3cc(F)cc(C(F)(F)F)c3)c(C3(c4ccccc4)CCCC3)n2)CC1 [Example 125, 5-pyrimidinecarboxamide, N-[[3-fluoro-5-(trifluoromethyl)phenyl]methyl]-2-(4-methyl-1-piperazinyl)-4-(1-phenylcyclopentyl)-]
6.50 | CC1CCCN(c2ncc(C(=O)NCc3cc(F)cc(C(F)(F)F)c3)c(C3(c4ccccc4)CCCC3)n2)C1 (centres unmarked) [Example 126, 5-pyrimidinecarboxamide, N-[[3-fluoro-5-(trifluoromethyl)phenyl]methyl]-2-(3-methyl-1-piperidinyl)-4-(1-phenylcyclopentyl)-]
8.00 | CC1CCN(c2ncc(C(=O)NCc3cc(F)cc(C(F)(F)F)c3)c(C3(c4ccccc4)CCCC3)n2)CC1 [Example 127, 5-pyrimidinecarboxamide, N-[[3-fluoro-5-(trifluoromethyl)phenyl]methyl]-2-(4-methyl-1-piperidinyl)-4-(1-phenylcylopentyl)-]
8.00 | CCC(C)Nc1ncc(C(=O)NCc2cc(F)cc(C(F)(F)F)c2)c(C2(c3ccccc3)CCCC2)n1 (centres unmarked) [Example 128, 5-pyrimidinecarboxamide, N-[[3-fluoro-5-(trifluoromethyl)phenyl]methyl]-2-[(1-methylpropyl)amino]-4-(1-phenylcyclopentyl)-]
7.70 | CN(C)CCNc1ncc(C(=O)NCc2cc(F)cc(C(F)(F)F)c2)c(C2(c3ccccc3)CCCC2)n1 [Example 129, 5-pyrimidinecarboxamide, 2-[[2-(dimethylamino)ethyl]amino]-N-[[3-fluoro-5-(trifluoromethyl)phenyl]methyl]-4-(1-phenylcyclopentyl)-]
6.06 | O=C(NCc1cc(F)cc(C(F)(F)F)c1)c1cnc(NC2CCCC2)nc1C1(c2ccccc2)CCCC1 [Example 130, 5-pyrimidinecarboxamide, 2-(cyclopentylamino)-N-[[3-fluoro-5-(trifluoromethyl)phenyl]methyl]-4-(1-phenylcyclopentyl)-]
6.80 | CC1CCC(Nc2ncc(C(=O)NC(C)c3ccc(F)cc3)c(C3(c4ccccc4)CCCC3)n2)CC1 (centres unmarked) [Example 131, 5-pyrimidinecarboxamide, N-[1-(4-fluorophenyl)ethyl]-2-[(4-methylcyclohexyl)amino]-4-(1-phenylcyclopentyl)-]

Source: patent publication US7091202B2, “4-arylspirocycloalkyl-2-aminopyrimidine carboxamide KCNQ potassium channel modulators” (Bristol-Myers Squibb Company, priority 2004, dated 2006)
